Results published in patent US11167059B2, “Compositions with reactive ingredients, and wound dressings, apparatuses, and methods” (KCI Licensing, Inc., priority 2010, dated 2021).

What was measured:
Format in all cases: cell-based
C. alb. [1] = test: Log reduction, single cycle, C. alb.; conditions: for ΔLog - C. alb. 30 sec.: 30 sec. exposure; for ΔLog - C. alb. 5 min.: 5 min. exposure
Description: (§1) Referring now to FIG. 17, the experiments described above for FIG. 14 were also performed with additional foams, one foam in which 1 gram of Calcium hypochlorite salt was infused (D100, shown as left column for each cycle), and one foam in which 2 grams of Calcium hypochlorite salt was dispersed (D200, shown as right column for each cycle). […] As discussed additionally below, the minimum concentration is significant because testing identified concentrations of hypochlorite-ion as low as 0.5-0.7 mM to have effective antibacterial and antimicrobial properties. Additional testing was performed to measure the zone of inhibition (ZOI) and Log Reduction of microbes for various samples of released aqueous solutions having various concentrations of hypochlorite ion, as listed in Tables 2 and 3. Table 2 lists ZOI and Log reduction data for a single cycle measured at hold times (exposure duration) of 30 seconds and 5 minutes of bacterial exposure to solution. Table 3 lists ZOI and Log reduction data for multiple cycles (each cycle including introduction of hypochlorite solution, and removal of solution prior to beginning next cycle). In the ZOI experimentation, foam discs having a diameter of 8 millimeters (mm) and a height of 5 mm were each saturated with hypochlorite-ion solution as indicated. Table 3 also lists the initial microbe count in log form (10^X, where X is listed in Table 2), log reduction in microbe count, and ZOI in mm. For the data of Table 3, the initial concentration (1×) of hypochlorite ion in solution was 5.7 mM of hypochlorite ion, which corresponds to 0.041% w/v of Ca(OCl)^2. In the Log reduction experimentation, the microbes were exposed to the respective concentration of solution for 30 seconds per cycle. […] The bold entries in Table 3 are indicative of substantially all microbes being killed. In the biofilm eradication cycles listed in Table 6 below, probes were cultured with microbes and incubated to permit formation of a biofilm on the probe. The probe was then exposed to solutions having various concentrations of Calcium hypochlorite solution for multiple cycles, with each cycle including exposure of the probe to solution for a duration of 5 minutes.

MRSA = test: zone of inhibition (ZOI), foam discs saturated with solution, MRSA; conditions: 8 mm foam disc saturated with solution
Description: as §1

C. alb. [2] = test: zone of inhibition (ZOI), foam discs saturated with solution, C. alb.; conditions: 8 mm foam disc saturated with solution
Description: as §1

[3] = system: Pseudomonas aeruginosa ATCC 27853; test: Log reduction, multiple cycles, P. aeruginosa; conditions: 30 seconds per cycle
Description: as §1

[4] = system: Staphylococcus aureus ATCC 10832; test: Log reduction, multiple cycles, S. aureus ATCC 10832; conditions: 30 seconds per cycle
Description: as §1

[5] = system: Staphylococcus aureus USA 400 (MRSA); test: Log reduction, multiple cycles, S. aureus USA 400 (MRSA); conditions: 30 seconds per cycle
Description: as §1

[6] = system: Pseudomonas aeruginosa ATCC 27853; test: Minimum Inhibitory Concentration (MIC), P. aeruginosa; conditions: % w/v Ca(OCl)2 in water
[7] = system: Staphylococcus aureus ATCC 10832; test: Minimum Inhibitory Concentration (MIC), S. aureus ATCC 10832; conditions: % w/v Ca(OCl)2 in water
[8] = system: Staphylococcus aureus USA 400 (MRSA); test: Minimum Inhibitory Concentration (MIC), S. aureus USA 400 (MRSA); conditions: % w/v Ca(OCl)2 in water
[9] = system: Staphylococcus aureus USA 400 (MRSA); test: Minimum Bactericidal Concentration (MBC), S. aureus USA 400 (MRSA); conditions: % w/v Ca(OCl)2 in water
Description: as §1, with “The probe was then exposed to solutions having various concentrations of Calcium hypochlorite solution for multiple cycles, with each cycle including exposure of the probe to solution for a duration of 5 minutes.” left out

[10] = system: Pseudomonas aeruginosa ATCC 27853; test: Minimum Biofilm Eradication Concentration (MBEC), P. aeruginosa; conditions: Pseudomonas aeruginosa ATCC 27853 biofilm on probe, 5 minutes per cycle, % w/v Ca(OCl)2
Description: as §1, with “The probe was then exposed to solutions having various concentrations of Calcium hypochlorite solution for multiple cycles, with each cycle including exposure of the probe to solution for a duration of 5 minutes.” left out

[11] = system: Staphylococcus aureus USA 400 (MRSA); test: Minimum Biofilm Eradication Concentration (MBEC), S. aureus USA 400 (MRSA); conditions: Staphylococcus aureus USA 400 (MRSA) biofilm on probe, 5 minutes per cycle, % w/v Ca(OCl)2
Description: as §1, with “The probe was then exposed to solutions having various concentrations of Calcium hypochlorite solution for multiple cycles, with each cycle including exposure of the probe to solution for a duration of 5 minutes.” left out

[12] = Sample Dilution 1x (5.7 mM hypochlorite ion, 0.041% w/v Ca(OCl)2)
[13] = Sample Dilution 2x of 5.7 mM hypochlorite ion
[14] = Sample Dilution 4x of 5.7 mM hypochlorite ion
[15] = Sample Dilution 8x of 5.7 mM hypochlorite ion (lowest concentration, 0.7 mM)

For hypochlorite ion [OCl^− Solutions], the “ΔLog - C. alb. 30 sec.” value (C. alb. [1]; 0.8 mM HOCl/OCl−) was 2.87, the “ΔLog - C. alb. 5 min.” value (C. alb. [1]; 0.8 mM HOCl/OCl−) was over 7.18 and the “ΔLog - C. alb. 30 sec.” value (C. alb. [1]; 1.9 mM HOCl/OCl−) was 2.94. The “ΔLog - C. alb. 5 min.” value (C. alb. [1]; 1.9 mM HOCl/OCl−) was 3.77, the “ΔLog - C. alb. 30 sec.” value (C. alb. [1]; 3.1 mM HOCl/OCl−) was 3.08 and the “ΔLog - C. alb. 5 min.” value (C. alb. [1]; 3.1 mM HOCl/OCl−) was over 7.18. For the same substance, the “ΔLog - C. alb. 30 sec.” value (C. alb. [1]; 4.0 mM HOCl/OCl−) was 3.94, the “ΔLog - C. alb. 5 min.” value (C. alb. [1]; 4.0 mM HOCl/OCl−) was over 7.18 and the “ΔLog - C. alb. 30 sec.” value (C. alb. [1]; 10.7 mM HOCl/OCl−) was 7.18. The “ΔLog - C. alb. 5 min.” value (C. alb. [1]; 10.7 mM HOCl/OCl−) was over 7.18, the “ΔLog - C. alb. 30 sec.” value (C. alb. [1]; 15.7 mM HOCl/OCl−) was 3.50 and the “ΔLog - C. alb. 5 min.” value (C. alb. [1]; 15.7 mM HOCl/OCl−) was over 7.18. For the same substance, the “ZOI, D in mm MRSA” value (MRSA; 0.8 mM HOCl/OCl−) was 0.0 mm, the “ZOI, D in mm MRSA” value (MRSA; 1.9 mM HOCl/OCl−) was 0.0 mm and the “ZOI, D in mm MRSA” value (MRSA; 3.1 mM HOCl/OCl−) was 0.0 mm. The “ZOI, D in mm MRSA” value (MRSA; 4.0 mM HOCl/OCl−) was 0.0 mm, the “ZOI, D in mm MRSA” value (MRSA; 10.7 mM HOCl/OCl−) was 13.0 mm and the “ZOI, D in mm MRSA” value (MRSA; 15.7 mM HOCl/OCl−) was 13.0 mm. For the same substance, the “ZOI, D in mm C. alb.” value (C. alb. [2]; 0.8 mM HOCl/OCl−) was 15.0 mm, the “ZOI, D in mm C. alb.” value (C. alb. [2]; 1.9 mM HOCl/OCl−) was 24.3 mm and the “ZOI, D in mm C. alb.” value (C. alb. [2]; 3.1 mM HOCl/OCl−) was 22.0 mm. The “ZOI, D in mm C. alb.” value (C. alb. [2]; 4.0 mM HOCl/OCl−) was 34.3 mm, the “ZOI, D in mm C. alb.” value (C. alb. [2]; 10.7 mM HOCl/OCl−) was 45.7 mm and the “ZOI, D in mm C. alb.” value (C. alb. [2]; 15.7 mM HOCl/OCl−) was 44.3 mm. The “Log Reduction Pseudomonas aeruginosa ATCC 27853 1 Cycle” value [3, 12] was −0.16, the “Log Reduction Pseudomonas aeruginosa ATCC 27853 3 Cycles” value [3, 12] was 5.87 and the “Log Reduction Pseudomonas aeruginosa ATCC 27853 5 Cycles” value [3, 12] was 5.83. The “Log Reduction Pseudomonas aeruginosa ATCC 27853 1 Cycle” value [3, 13] was −0.98, the “Log Reduction Pseudomonas aeruginosa ATCC 27853 3 Cycles” value [3, 13] was 5.87 and the “Log Reduction Pseudomonas aeruginosa ATCC 27853 5 Cycles” value [3, 13] was 5.83. The “Log Reduction Pseudomonas aeruginosa ATCC 27853 1 Cycle” value [3, 14] was −0.48, the “Log Reduction Pseudomonas aeruginosa ATCC 27853 3 Cycles” value [3, 14] was 3.92 and the “Log Reduction Pseudomonas aeruginosa ATCC 27853 5 Cycles” value [3, 14] was 5.83. For the same substance, the “Log Reduction Pseudomonas aeruginosa ATCC 27853 1 Cycle” value [3, 15] was −1.11, the “Log Reduction Pseudomonas aeruginosa ATCC 27853 3 Cycles” value [3, 15] was 1.26 and the “Log Reduction Pseudomonas aeruginosa ATCC 27853 5 Cycles” value [3, 15] was 5.39. For the same substance, the “Log Reduction Staphylococcus aureus ATCC 10832 1 Cycle” value [4, 12] was 3.21, the “Log Reduction Staphylococcus aureus ATCC 10832 3 Cycles” value [4, 12] was 2.82 and the “Log Reduction Staphylococcus aureus ATCC 10832 5 Cycles” value [4, 12] was 2.66. The “Log Reduction Staphylococcus aureus ATCC 10832 1 Cycle” value [4, 13] was 3.21, the “Log Reduction Staphylococcus aureus ATCC 10832 3 Cycles” value [4, 13] was 2.82 and the “Log Reduction Staphylococcus aureus ATCC 10832 5 Cycles” value [4, 13] was 2.66. For the same substance, the “Log Reduction Staphylococcus aureus ATCC 10832 1 Cycle” value [4, 14] was 3.21, the “Log Reduction Staphylococcus aureus ATCC 10832 3 Cycles” value [4, 14] was 2.82 and the “Log Reduction Staphylococcus aureus ATCC 10832 5 Cycles” value [4, 14] was 2.66. For the same substance, the “Log Reduction Staphylococcus aureus ATCC 10832 1 Cycle” value [4, 15] was 3.21, the “Log Reduction Staphylococcus aureus ATCC 10832 3 Cycles” value [4, 15] was 2.82 and the “Log Reduction Staphylococcus aureus ATCC 10832 5 Cycles” value [4, 15] was 2.66. The “Log Reduction Staphylococcus aureus USA 400 (MRSA) 1 Cycle” value [5, 12] was 4.15, the “Log Reduction Staphylococcus aureus USA 400 (MRSA) 3 Cycles” value [5, 12] was 3.63 and the “Log Reduction Staphylococcus aureus USA 400 (MRSA) 5 Cycles” value [5, 12] was 3.91. For the same substance, the “Log Reduction Staphylococcus aureus USA 400 (MRSA) 1 Cycle” value [5, 13] was 4.15, the “Log Reduction Staphylococcus aureus USA 400 (MRSA) 3 Cycles” value [5, 13] was 3.63 and the “Log Reduction Staphylococcus aureus USA 400 (MRSA) 5 Cycles” value [5, 13] was 3.91. The “Log Reduction Staphylococcus aureus USA 400 (MRSA) 1 Cycle” value [5, 14] was 4.15, the “Log Reduction Staphylococcus aureus USA 400 (MRSA) 3 Cycles” value [5, 14] was 3.63 and the “Log Reduction Staphylococcus aureus USA 400 (MRSA) 5 Cycles” value [5, 14] was 3.91. The “Log Reduction Staphylococcus aureus USA 400 (MRSA) 1 Cycle” value [5, 15] was 4.15, the “Log Reduction Staphylococcus aureus USA 400 (MRSA) 3 Cycles” value [5, 15] was 3.63 and the “Log Reduction Staphylococcus aureus USA 400 (MRSA) 5 Cycles” value [5, 15] was 3.91. For the same substance, the “Minimum Inhibitory Concentration (MIC) 1 Cycle” value ([6]; 1 Cycle) was under 0.005% w/v, the “Minimum Inhibitory Concentration (MIC) 3 Cycles” value ([6]; 3 Cycles) was under 0.005% w/v and the “Minimum Inhibitory Concentration (MIC) 5 Cycles” value ([6]; 5 Cycles) was under 0.005% w/v. The “Minimum Inhibitory Concentration (MIC) 1 Cycle” value ([7]; 1 Cycle) was under 0.005% w/v, the “Minimum Inhibitory Concentration (MIC) 3 Cycles” value ([7]; 3 Cycles) was under 0.005% w/v and the “Minimum Inhibitory Concentration (MIC) 5 Cycles” value ([7]; 5 Cycles) was under 0.005% w/v. For the same substance, the “Minimum Inhibitory Concentration (MIC) 1 Cycle” value ([8]; 1 Cycle) was under 0.005% w/v, the “Minimum Inhibitory Concentration (MIC) 3 Cycles” value ([8]; 3 Cycles) was under 0.005% w/v and the “Minimum Inhibitory Concentration (MIC) 5 Cycles” value ([8]; 5 Cycles) was under 0.005% w/v. The “Minimum Bactericidal Concentration (MBC) 1 Cycle” value ([9]; 1 Cycle) was under 0.005% w/v, the “Minimum Bactericidal Concentration (MBC) 3 Cycles” value ([9]; 3 Cycles) was under 0.005% w/v and the “Minimum Bactericidal Concentration (MBC) 5 Cycles” value ([9]; 5 Cycles) was under 0.005% w/v. The “Minimum Biofilm Eradication Concentration (MBEC) 1 Cycle” value ([10]; 1 Cycle) was over 0.041% w/v, the “Minimum Biofilm Eradication Concentration (MBEC) 3 Cycles” value ([10]; 3 Cycles) was 0.021% w/v and the “Minimum Biofilm Eradication Concentration (MBEC) 5 Cycles” value ([10]; 5 Cycles) was 0.041% w/v. The “Minimum Biofilm Eradication Concentration (MBEC) 1 Cycle” value ([11]; 1 Cycle) was under 0.005% w/v, the “Minimum Biofilm Eradication Concentration (MBEC) 3 Cycles” value ([11]; 3 Cycles) was under 0.005% w/v and the “Minimum Biofilm Eradication Concentration (MBEC) 5 Cycles” value ([11]; 5 Cycles) was under 0.005% w/v.
